# From PMC6201879, “N-substituted phenylbenzamides of the niclosamide chemotype attenuate obesity related changes in high fat diet fed mice” (PLoS ONE, 2018)
# Like-named read-outs stand apart in the source and are kept apart here.
# Key:
# PH5CH8 liver cells = assay: High-throughput hepatic de novo lipogenesis (DNL) assay, high content imaging of steatotic phenotype; type: cell-based, human; conditions: for IC50: Homo sapiens
# [1] = system: HEK293 cells stably transduced with the human OCT3 transporter; assay: Cellular oxygen consumption rate (OCR), MitoXpress Xtra; type: cell-based; conditions: HEK293 cells expressing human OCT3
# Protocol: Oxygen consumption rate experiments were performed by ZenBio, Inc (RTP, NC). HEK293 cells stably transduced with the human OCT3 transporter were plated in black-walled microclear plates (Greiner-BioOne) at 60,000 cells per well in growth medium. Cells were incubated overnight to allow attachment before growth medium was removed and replaced with 150μL of assay medium containing compound dilutions. Four concentrations of each compound were prepared and transferred to the empty wells. Control wells contained assay medium only or assay medium containing […] (FCCP) at 1μM. Ten μL of MitoXpress Xtra reagent was added to each test well and 100μL of pre-warmed mineral oil was overlaid in each well to create a seal. The plates were immediately read on a FLUOstar Omega (BMG) using dual read Time Resolved Fluorescence (TR-F) for 2 hours, with measurements taken every 2 minutes using 340nm and 650nm as excitation and emission wavelengths respectively. For lifetime analysis, two measurements per well were taken: 1) delay of 30μs, with a window of 30μs; and 2) delay of 70μs with a window of 30μs. Background TRF values were subtracted from all readings. A ratiometric analysis was performed to determine changes in the Lifetime fluorescence signal: Lifetime (μs)[T] = (D2-D1)/ln(W1/W2), where D is delay; W is fluorescence window value at each time point. Lifetime slopes were calculated using each Lifetime measurement over time. Data are presented as mean ± standard error (SE). The differences between the control (DMSO) and compound treated wells were analyzed using the Student’s t-test. A value of p≤0.05 was considered statistically significant. […]
# [2] = Metabolic stability in human liver microsomes; type: in vitro ADME; conditions: for Remaining Percentage of 60 min (%), Human, Tested Sample: 0.5mg/ml microsomes and 1mM NADPH; for Remaining Percentage of 60 min (%), Human, Negative Control: 0.5mg/ml microsomes without NADPH; for Remaining Percentage of 60 min (%), Human, Heat-inactivated Control: heat inactivated microsomes without NADPH
# Protocol: (§1) Three experiments were performed with 1) 0.5mg/ml microsomes and 1mM NADPH, 2) 0.5mg/ml microsomes without NADPH and 3) 0.5mg/ml heat inactivated microsomes without NADPH in 100mM phosphate buffer, containing 5mM magnesium chloride. […] At the indicated time points, 50μl samples were removed and stopped by addition of 4 volumes of cold acetonitrile with internal standards, 100nM alprazolam, 200nM labetalol and 2μM ketoprofen. The samples were centrifuged at 3,220 g for 40 minutes and aliquots of 100μl were subsequently diluted with 100μl of ultra-pure water and analyzed by LC/MS/MS using a (Shimadzu corporation) LC system coupled to a Shimadzu Triple Quad 5500 mass spectrometer with an ESI interface. The LC system used a Waters XSelect HSS T3 C18, 2.5μm, 2.1 x 50 mm column eluted with one of two methods using mobile phases A (water, 0.1% formic acid) and B (acetonitrile, 0.1% formic acid). […] The Shimadzu Triple Quad 5500 MS was operated with the following parameters: Ion source: Turbo spray; Ionization mode: ESI; Scan type: MRM; Collision gas: 10 L/min; Curtain gas: 30 L/min; Nebulize gas: 50 L/min; Auxiliary gas: 50 L/min; Temperature: 500°C; Ionspray voltage: +5500 V (positive MRM). All experiments were performed in duplicate. Data were analyzed using Microsoft excel, and peak areas were determined from extracted ion chromatograms.
# [3] = Metabolic stability in mouse liver microsomes; type: in vitro ADME; conditions: for Remaining Percentage of 60 min (%), Mouse, Tested Sample: 0.5mg/ml microsomes and 1mM NADPH; for Remaining Percentage of 60 min (%), Mouse, Negative Control: 0.5mg/ml microsomes without NADPH; for Remaining Percentage of 60 min (%), Mouse, Heat-inactivated Control: heat inactivated microsomes without NADPH
# Protocol: as §1
# [4] = system: Salmonella typhimurium TA100; conditions: for Mean Revertant Colony Counts TA-100 SP9+: with S9; for Mean Revertant Colony Counts TA-100 S9-: without S9; for fold increase in the mean number of revertant colonies, TA100: any concentration tested, vs negative control
# [5] = system: Salmonella typhimurium TA98; assay: Ames assay, strain TA98; conditions: for Mean Revertant Colony Counts TA98 SP9+: with S9; for Mean Revertant Colony Counts TA98 S9-: without S9; for fold increase in the mean number of revertant colonies, TA98: any concentration tested, vs negative control
# [6] = PH5CH8 liver cells, 10-point dose response between 1μM and 1.9nM, read-out: IC50 (uM), inhibition of steatotic phenotype in DNL assay
# [7] = S1 Table, SAR for N-Substituted Phenylbenzamides, read-out: IC50
# [8] = S1 Table, SAR for N-Substituted Phenylbenzamides
smiles,measurement,setting,value
"CC(C)(C)c1cc(C(=O)Nc2ccc(C(=O)O)cc2Cl)c(O)c(C(C)(C)C)c1 [Compound 600453, 3-Chloro-4-[(3,5-di-tert-butyl-2-hydroxybenzene)amido]benzoic acid]",IC50,PH5CH8 liver cells; [6],0.14 µM
same,IC50,PH5CH8 liver cells; [7],0.091 µM
same,Active/Inactive,PH5CH8 liver cells; [8],Active
same,concentration dependence of OCR change,[1]; four concentrations,significantly decreased OCR at all concentrations above 300nM
same,"Remaining Percentage of 60 min (%), Human, Tested Sample",[2],58.8%
same,"Remaining Percentage of 60 min (%), Human, Negative Control",[2],92.2%
same,"Remaining Percentage of 60 min (%), Human, Heat-inactivated Control",[2],93.7%
same,"Remaining Percentage of 60 min (%), Mouse, Tested Sample",[3],88.1%
same,"Remaining Percentage of 60 min (%), Mouse, Negative Control",[3],109.7%
same,stability in MLM,[3]; 60 minutes,stable
same,"Remaining Percentage of 60 min (%), Mouse, Heat-inactivated Control",[3],91.4%
same,Mean Revertant Colony Counts TA-100 SP9+,[4]; 1.5 ug/Well,17.3
same,Mean Revertant Colony Counts TA-100 S9-,[4]; 1.5 ug/Well,35.0
same,Mean Revertant Colony Counts TA-100 SP9+,[4]; 4 ug/Well,21.3
same,Mean Revertant Colony Counts TA-100 S9-,[4]; 4 ug/Well,30.0
same,Mean Revertant Colony Counts TA-100 SP9+,[4]; 10 ug/Well,27.0
same,Mean Revertant Colony Counts TA-100 S9-,[4]; 10 ug/Well,33.3
same,Mean Revertant Colony Counts TA-100 SP9+,[4]; 25 ug/Well,34.0
same,Mean Revertant Colony Counts TA-100 S9-,[4]; 25 ug/Well,24.0
same,Mean Revertant Colony Counts TA-100 SP9+,[4]; 64 ug/Well,31.7
same,Mean Revertant Colony Counts TA-100 S9-,[4]; 64 ug/Well,26.3
same,Mean Revertant Colony Counts TA-100 SP9+,[4]; 160 ug/Well,24.3
same,Mean Revertant Colony Counts TA-100 S9-,[4]; 160 ug/Well,21.3
same,Mean Revertant Colony Counts TA-100 SP9+,[4]; 400 ug/Well,29.3
same,Mean Revertant Colony Counts TA-100 S9-,[4]; 400 ug/Well,8.0
same,Mean Revertant Colony Counts TA-100 SP9+,[4]; 1000 ug/Well,15.7
same,Mean Revertant Colony Counts TA-100 S9-,[4]; 1000 ug/Well,2.7
same,"fold increase in the mean number of revertant colonies, TA100",[4],< 2 fold
same,Mean Revertant Colony Counts TA98 SP9+,[5]; 1.5 ug/Well,5.0
same,Mean Revertant Colony Counts TA98 S9-,[5]; 1.5 ug/Well,4.3
same,Mean Revertant Colony Counts TA98 SP9+,[5]; 4 ug/Well,8.3
same,Mean Revertant Colony Counts TA98 S9-,[5]; 4 ug/Well,3.7
same,Mean Revertant Colony Counts TA98 SP9+,[5]; 10 ug/Well,7.7
same,Mean Revertant Colony Counts TA98 S9-,[5]; 10 ug/Well,3.3
same,Mean Revertant Colony Counts TA98 SP9+,[5]; 25 ug/Well,6.3
same,Mean Revertant Colony Counts TA98 S9-,[5]; 25 ug/Well,3.0
same,Mean Revertant Colony Counts TA98 SP9+,[5]; 64 ug/Well,8.7
same,Mean Revertant Colony Counts TA98 S9-,[5]; 64 ug/Well,6.0
same,Mean Revertant Colony Counts TA98 SP9+,[5]; 160 ug/Well,6.3
same,Mean Revertant Colony Counts TA98 S9-,[5]; 160 ug/Well,3.7
same,Mean Revertant Colony Counts TA98 SP9+,[5]; 400 ug/Well,7.3
same,Mean Revertant Colony Counts TA98 S9-,[5]; 400 ug/Well,2.0
same,Mean Revertant Colony Counts TA98 SP9+,[5]; 1000 ug/Well,4.0
same,Mean Revertant Colony Counts TA98 S9-,[5]; 1000 ug/Well,3.7
same,"fold increase in the mean number of revertant colonies, TA98",[5],< 2 fold
"CC(C)(C)c1ccc(O)c(C(=O)Nc2ccc(C(=O)O)cc2Cl)c1 [Compound 500200, 4-[(5-tert-butyl-2-hydroxybenzene)amido]-3-chlorobenzoic acid]",IC50,PH5CH8 liver cells; [6],0.27 µM
same,IC50,PH5CH8 liver cells; [7],0.034 µM
same,Active/Inactive,PH5CH8 liver cells; [8],Active
same,change in respiration / oxygen consumption rate (OCR),"[1]; compared to DMSO control, 2 hours",no change in respiration
same,"Remaining Percentage of 60 min (%), Human, Tested Sample",[2],84.5%
same,"Remaining Percentage of 60 min (%), Human, Negative Control",[2],110.2%
same,"Remaining Percentage of 60 min (%), Human, Heat-inactivated Control",[2],96.6%
same,"Remaining Percentage of 60 min (%), Mouse, Tested Sample",[3],101.2%
same,"Remaining Percentage of 60 min (%), Mouse, Negative Control",[3],111.5%
same,"Remaining Percentage of 60 min (%), Mouse, Heat-inactivated Control",[3],102.7%
same,Mean Revertant Colony Counts TA-100 SP9+,[4]; 1.5 ug/Well,18.7
same,Mean Revertant Colony Counts TA-100 S9-,[4]; 1.5 ug/Well,32.3
same,Mean Revertant Colony Counts TA-100 SP9+,[4]; 4 ug/Well,19.7
same,Mean Revertant Colony Counts TA-100 S9-,[4]; 4 ug/Well,25.7
same,Mean Revertant Colony Counts TA-100 SP9+,[4]; 10 ug/Well,22.0
same,Mean Revertant Colony Counts TA-100 S9-,[4]; 10 ug/Well,26.7
same,Mean Revertant Colony Counts TA-100 SP9+,[4]; 25 ug/Well,22.0
same,Mean Revertant Colony Counts TA-100 S9-,[4]; 25 ug/Well,28.0
same,Mean Revertant Colony Counts TA-100 SP9+,[4]; 64 ug/Well,20.3
same,Mean Revertant Colony Counts TA-100 S9-,[4]; 64 ug/Well,26.3
same,Mean Revertant Colony Counts TA-100 SP9+,[4]; 160 ug/Well,27.7
same,Mean Revertant Colony Counts TA-100 S9-,[4]; 160 ug/Well,24.0
same,Mean Revertant Colony Counts TA-100 SP9+,[4]; 400 ug/Well,18.3
same,Mean Revertant Colony Counts TA-100 S9-,[4]; 400 ug/Well,29.7
same,Mean Revertant Colony Counts TA-100 SP9+,[4]; 1000 ug/Well,8.0
same,Mean Revertant Colony Counts TA-100 S9-,[4]; 1000 ug/Well,16.3
same,"fold increase in the mean number of revertant colonies, TA100",[4],< 2 fold
same,Mean Revertant Colony Counts TA98 SP9+,[5]; 1.5 ug/Well,7.7
same,Mean Revertant Colony Counts TA98 S9-,[5]; 1.5 ug/Well,9.0
same,Mean Revertant Colony Counts TA98 SP9+,[5]; 4 ug/Well,6.3
same,Mean Revertant Colony Counts TA98 S9-,[5]; 4 ug/Well,12.0
same,Mean Revertant Colony Counts TA98 SP9+,[5]; 10 ug/Well,9.0
same,Mean Revertant Colony Counts TA98 S9-,[5]; 10 ug/Well,8.7
same,Mean Revertant Colony Counts TA98 SP9+,[5]; 25 ug/Well,7.3
same,Mean Revertant Colony Counts TA98 S9-,[5]; 25 ug/Well,9.0
same,Mean Revertant Colony Counts TA98 SP9+,[5]; 64 ug/Well,9.0
same,Mean Revertant Colony Counts TA98 S9-,[5]; 64 ug/Well,7.7
same,Mean Revertant Colony Counts TA98 SP9+,[5]; 160 ug/Well,11.0
same,Mean Revertant Colony Counts TA98 S9-,[5]; 160 ug/Well,5.0
same,Mean Revertant Colony Counts TA98 SP9+,[5]; 400 ug/Well,7.0
same,Mean Revertant Colony Counts TA98 S9-,[5]; 400 ug/Well,9.7
same,Mean Revertant Colony Counts TA98 SP9+,[5]; 1000 ug/Well,4.3
same,Mean Revertant Colony Counts TA98 S9-,[5]; 1000 ug/Well,4.3
same,"fold increase in the mean number of revertant colonies, TA98",[5],< 2 fold
